Reference: patent publication US9504702B2, “Methods of inhibition of protein fucosylation in vivo using fucose analogs” (Seattle Genetics, Inc., priority 2010, dated 2016)

Key:
[1] = tested on: LP-1 cells (IgG heavy chain fucose signal); experiment: Fucosylation of LP-1 IgG, SDS-PAGE/Western blot with biotinylated AOL; type: cell-based, human; details: for AOL signal on IgG heavy chain, SDS-PAGE/Western blot: 50 μM, LP-1 cells, versus untreated cells; for inhibition of fucosylation of antibody (AOL signal): IgG isolated from LP-1 culture
Source text: The ability of different fucose analogs to inhibit the fucosylation of IgG antibodies produced by human myeloma cells as well as the fucosylation of surface proteins of human cancer cell lines was investigated. In a first study, the ability of fucose analogs to inhibit fucosylation of IgG produced by the cell line LP-1, a human multiple myeloma cell line, was investigated. The antibodies produced by, and found in the culture medium of, untreated LP-1 cells were confirmed to be of the IgG type by western blot using anti-human IgG detection (data not shown). This was accomplished by growing 20 mL of LP-1 cells in a T-75 culture flask (250,000 cells/mL) for 5 days at 37° C. in a humidified atmosphere of 5% CO2 in IgG-depleted tissue culture media (90% RPMI with 10% IgG-depleted heat inactivated FBS). Harvest of the cells was by centrifugation (200×g, 4° C., 5 min), and the culture medium was collected. The medium was filtered through a 0.22 μm filter and then incubated with 1 mL of a 50% MabSelect™ protein A resin slurry in PBS at 4° C. with rotation overnight to capture the IgG. The resin slurry was allowed to settle and most of the medium was removed. The resin slurry was transferred with ˜0.5 mL media to two cellulose acetate filter spin cups and was centrifuged at 5000×g for 1 min. The resin bed was then washed 3 times with 0.5 mL PBS. The IgG was eluted with 700 μL of Pierce IgG elution buffer (into with 52 μL of 9 M Tris buffer, pH 9.5 to adjust the pH after elution). The resulting elution was transferred to a 10,000 MW cutoff centrifugal concentrator and the sample was concentrated to approximately 20 μL. 1 μL of the concentrated sample was loaded on an SDS polyacrylamide gel for separation followed by blotting onto nitrocellulose membrane. Staining of the blot for total protein was with Ponceau S and for identification of isotype with anti-human IgG antibody.
Antibody fucosylation can also be determined using a biotin-labeled Aspergillus oryzae L-fucose-specific lectin (AOL), which binds specifically to the α-1,6-linked fucose of the antibody. This method for fucose detection works for both blotted protein that has either been separated by SDS-PAGE or for protein that has been applied to nitrocellulose without separation. The […] signal generated using the AOL-biotin conjugate with streptavidin-HRP binding and ECL detection can be quantitated using an Alpha Innotech FlourChem® Q system.
The three analogs chosen were used at a concentration of 50 μM. These analyses compared the activity of 2-fluorofucose (SGD-2083), 2-fluorofucose peracetate (SGD-2084), and alkynyl fucose peracetate (SGD-1890) with antibody from untreated cells.

[2] = tested on: antibody core fucosylation (antibodies that did not bind to KLH, recovered from protein A column); experiment: In vivo antibody fucosylation after ip dosing (Example 1, Study 1), AOL lectin dot blot; details: 150 mg/kg ip daily for 7 days; for fucosylation levels of the antibodies reduced, as compared to the untreated controls: non-KLH antibodies from protein A column, dot blot, on average
Description: Female BALB/c mice were immunized with Keyhole Limpet Hemocyanin (KLH) 30-60 days prior to starting this study. For the first study, mice were dosed ip with 150 mg/kg of alkynyl fucose (SGD-1887), alkynyl fucose peracetate (SGD-1890), 2-fluorofucose (SGD-2083), or 2-fluorofucose triacetate (SGD-2084) daily for 7 days or were untreated. On day 2, mice were also boosted with KLH. On the day after the last ip dose, mice were terminally bled and serum obtained. For the second study, mice were given 100 mM of 2-fluorofucose (SGD-2083) in their drinking water or given untreated water for 7 days, boosted with KLH, and continued with 100 mM 2-fluorofucose containing drinking water or untreated water for 7 more days before being terminally bled. Serum was then obtained. No mice died in either study. For both studies, serum was passed over a commercial anti-KLH affinity column to obtain KLH-specific polyclonal antibodies. The flow through from the anti-KLH affinity column was passed over a commercial protein A column to obtain the remaining antibodies.
Dot blots: 0.5 μg each of antibodies from untreated and treated animals, as well as standards of antibody cAC10 having known amounts of core fucosylation (0 to 100% fucose), were blotted onto a nitrocellulose membrane. The proteins levels were visualized by Ponceau staining. The blot was probed with biotinylated Aspergillus oryzae L-fucose-specific lectin (AOL) (which binds to fucosylated antibodies) and developed with streptavidin HRP and ECL. Gel loading (visible) and fucose signals (bioluminescence) were measured with an Alpha Innotech camera and quantitated with the machine software.

[3] = tested on: LP-1, a human multiple myeloma cell line (IgG fucosylation); experiment: Fucosylation of LP-1-generated IgG, AOL dot blot; type: cell-based
Summary of the method: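 LP-1 cells (250,000 cells/mL) treated with 100 μM of each analog for 5 days at 37° C in IgG-depleted RPMI/10% FBS. Secreted IgG purified on protein A, ~0.5 μg dot-blotted (Ponceau S loading check) and probed with 5 μg/ml biotinylated AOL, detected with streptavidin-HRP.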

Structure (SMILES)	AOL signal on IgG heavy chain, SDS-PAGE/Western blot [1]	inhibition of fucosylation of antibody (AOL signal) [1]	mortality [2]	fucosylation levels of the antibodies reduced, as compared to the untreated controls [2]	inhibition of IgG fucosylation in human cells (decrease in AOL signal, dot blot) ([3]; 100 μM, LP-1 cells)	dot blot results (% fucose signal of control) ([3]; LP-1-generated IgG, 100 μM)	activity at 100 µM ([3]; Homo sapiens, LP-1, 120 h, 5 days, LP-1 cells, AOL dot blot, multiple samples separated by semicolon, read-out: % of control fucosylated IgG value)
C#CC(OC(C)=O)[C@@H](OC(C)=O)[C@@H](OC(C)=O)[C@@H](C=O)OC(C)=O (stereo partly shown) [SGD-1890, 5-ethynylarabinose tetraacetate]	did not show reactivity with the biotinylated AOL	did	No mice died	about one third	potentially strong inhibitors	~1 % fucose signal of control	
C[C@H](O)[C@@H](O)[C@@H](O)[C@H](F)C=O [SGD-2083, 2-fluoro-2-deoxy fucose]	no apparent change in the AOL signal	did not inhibit fucosylation of antibody		about one third			66%
